The values that follow come from patent US11590236B2, “Compositions and methods for altering macrophage phenotype” (priority 2019, dated 2023).

The data set concerns macrophages differentiated from human peripheral blood monocytes. In words: Cell death / viability of macrophages after drug exposure. In kind it is cell-based. Conditions: all concentrations tested. As for the experimental part: As with Cu(II)-tilmanocept, MT1001.8 was evaluated using macrophages differentiated from human peripheral blood monocytes cultured in supplemented RPMI-1640 medium to which GM-CSF was added. The resulting macrophages were then exposed for 23 hours to MT1001.8 at different concentrations ranging from 0 (controls) to 6.68 μM. Free doxorubicin and the mannosylated dextran construct without the doxorubicin payload were also evaluated as controls. After the 23-hour exposure to the drug construct, the drug containing media were removed and replaced with fresh supplemented RPMI-1640 with GM-CSF and incubated for an additional 72 hours. This final 72-hour incubation in fresh medium was to permit the macrophages to recover from the drug treatment and to manifest any phenotype changes that might have been induced by exposure to the drug construct. All experiments were replicated 5-8 times with peripheral blood monocytes obtained from 5 separate donors. After the last 72-hour incubation, the media were collected and analyzed for their concentrations of various cytokines.

The structures appear in SMILES notation.

As to `COc1cccc2c1C(=O)c1c(O)c3c(c(O)c1C2=O)C[C@@](O)(C(=O)CO)C[C@@H]3O[C@H]1C[C@H](N)[C@H](O)[C@H](C)O1` [free doxorubicin, doxorubicin], the cell death entry is recorded as “high levels of cell death”.
